Key:
[1] = Nonparametric population PK model of daptomycin (NPAG, Pmetrics) in the learning dataset
Description: (§1) We used two data sets: a learning set used to derive the nonparametric population model of daptomycin and a validation dataset. The learning dataset was described in a previous publication from our group, which focused on the influence of P-gp gene polymorphism on daptomycin PK (n = 81 patients). […] All patients were enrolled in a cohort study after information. This cohort study was subject to a declaration to the local Commission for Data Protection and Liberties (number 17-057) and is registered on ClinicalTrial.gov (number NCT03134521). In addition, patients’ written informed consent was obtained for P-gp genotyping, in accordance with French regulation.
(§2) Blood samples for daptomycin TDM were obtained during hospitalization or follow-up visit at the BJI center. In most patients, TDM was performed on several occasions to control drug exposure throughout therapy. At each occasion, a typical PK profile was obtained, including three plasma samples collected approximately pre-dose (trough or Cmin), 30 min and 5 to 6 h after daptomycin administration. On some occasions, only one or two samples could be obtained. Sampling times were recorded precisely in each patient. Daptomycin plasma concentrations were measured using an HPLC assay with a photodiode array detector. The method was adapted from a previous publication.
(§3) In our previous work, the final population PK model of daptomycin was built by using a parametric approach (SAEM algorithm in the Monolix software). […] We reanalyzed the original dataset in order to implement a nonparametric model into the BestDose software. The NPAG algorithm embedded into the Pmetrics package for R was used to develop the nonparametric model. […] The error model was based on the assay error pattern. The predictive performance of the final model was assessed by computing the bias and precision of model-based individual predictions (see below). The model was then imported into the Windows version of the BestDose software.

[2] = patients who received 6 mg/kg; cited from earlier work
[3] = in vivo; cited from earlier work
Description: However, increasing daptomycin doses raises concerns about safety. It was shown that daptomycin muscular toxicity, as measured by elevation in serum creatinine phosphokinase (CPK), correlated with plasma trough concentration (Cmin).

[4] = Daptomycin TDM in patients with bone and joint infection, Bayesian estimation with parametric model (Dvorchik et al.) in Tucuxi (validation dataset)
Description: as §1, §2
As we aimed at comparing our nonparametric model to a reference model for TDM and dose adjustment, we implemented the seminal daptomycin parametric model developed by daptomycin’s manufacturer into the Tucuxi software. Tucuxi is a new software dedicated to the analysis of TDM results and individual dose adjustment (http://www.tucuxi.ch/, accessed 27 December 2021).
The two-compartment reference model from Dvorchik et al. was imported into Tucuxi, including its error model and all its covariates except body temperature, which influenced daptomycin clearance in the original model. This covariate was discarded because it is not measured consistently in all patients in routine, especially in outpatients, and its value may be altered by co-treatment such as acetaminophen. The other covariates were retained, with creatinine clearance and sex influencing daptomycin clearance and body weight influencing both intercompartment clearance and peripheral volume of distribution.
(§4) We used an external dataset from 94 patients who received daptomycin for BJI and had TDM to validate the predictive performance of our nonparametric model in BestDose and that of the parametric model in Tucuxi. In this evaluation, we only used the daptomycin concentrations collected during the first TDM occasion in each patient.
(§5) The dosage history, covariate values, times and values of measured concentrations in each patient were entered into each program. The population model was fit to individual data by using Bayesian regression in both tools. After estimation of Bayesian posterior individual PK parameters, the estimated PK profile of each patient was obtained, including predictions of measured daptomycin concentrations.
(§6) Because daptomycin AUC is an important predictor of its antibacterial effect, we also compared the estimations of individual daily AUC (AUC24h) in the 94 patients provided by BestDose and Tucuxi.

[5] = cited from earlier work
Protocol: Daptomycin is a cyclic lipopeptide antibiotic with bactericidal activity on Gram-positive bacteria discovered in 1980 [1, 2]. The Food and Drug Administration (FDA) approved its use in 2003 for treating complicated skin and skin structure infections and Staphylococcus aureus bloodstream infections, including those with right-sided infective endocarditis. In those indications, the recommended dosing regimen ranges from 4 to 6 mg/kg. Daptomycin is also used off-label in various indications, including bloodstream infections caused by Gram-positive agents others than S. aureus and bone an ...

[6] = Daptomycin TDM in patients with bone and joint infection, Bayesian estimation with nonparametric model in BestDose (validation dataset)
Description: as §1, §2, §3, §4, §5, §6

[7] = learning dataset n = 81, Pmetrics estimation, mean
[8] = learning dataset n = 81, Pmetrics estimation, median

Compound: CCCCCCCCCC(=O)N[C@@H](Cc1c[nH]c2ccccc12)C(=O)N[C@H](CC(N)=O)C(=O)N[C@@H](CC(=O)O)C(=O)N[C@@H]1C(=O)NCC(=O)N[C@@H](CCCN)C(=O)N[C@@H](CC(=O)O)C(=O)N[C@H](C)C(=O)N[C@@H](CC(=O)O)C(=O)NCC(=O)N[C@H](CO)C(=O)N[C@@H]([C@H](C)CC(=O)O)C(=O)N[C@@H](CC(=O)c2ccccc2N)C(=O)O[C@@H]1C [daptomycin, Daptomycin]
- Kpc (transfer rate constant peripheral to central), mean ([1]; in vivo): 0.667 h⁻¹
- Kpc (transfer rate constant peripheral to central), median ([1]; in vivo): 0.449 h⁻¹
- Kcp (transfer rate constant central to peripheral), mean [1, 7]: 0.693 h⁻¹
- Ki (non-renal component of elimination rate constant), mean [1, 7]: 0.060 h⁻¹
- Ks (renal component of elimination rate constant), mean [1, 7]: 0.050 h^−1 per 100 mL/min of CLCR
- Kcp (transfer rate constant central to peripheral), median [1, 8]: 0.287 h⁻¹
- Ki (non-renal component of elimination rate constant), median [1, 8]: 0.052 h⁻¹
- Ks (renal component of elimination rate constant), median [1, 8]: 0.045 h^−1 per 100 mL/min of CLCR
- V1 (central volume of distribution), mean ([1]; population parameter, learning dataset n = 81, Pmetrics estimation, mean): 6.90 L per 70 kg
- V1 (central volume of distribution), median ([1]; population parameter, learning dataset n = 81, Pmetrics estimation, median): 7.18 L per 70 kg
- Rate of efficacy target attainment [2]: 40%
- Upper bound for Cmin target (CPK elevation) [3]: 24.3 µg/mL
- T1/2 (terminal half-life) ([4]; Tucuxi individual estimate, validation dataset n = 94, mean ± SD): 13.1 ± 4.7 h
- AUC24h ([4]; human, in vivo, SD): 893 ± 345 mg·h/L
- CLdap (daptomycin total body clearance) ([4]; human, in vivo, SD): 0.73 ± 0.29 L/h
- Dmin (minimum effective dose to attain AUC24h = 666 mg.h/L at steady-state) ([4]; human, in vivo, SD): 6.9 ± 2.8 mg/kg
- Predicted concentrations ([4]; human, in vivo, SD): 44.3 ± 44.5 mg/L
- V1 ([4]; human, in vivo, SD): 5.9 ± 2.4 L
- Average ratio of area under the unbound concentration time-curve in bone over plasma ([5]; 10 patients): 1.08
- Average tissue to plasma concentration ratio, bone ([5]; bone): 14.1%
- Average tissue to plasma concentration ratio, synovial fluid ([5]; synovial fluid): 54%
- T1/2 (terminal half-life) ([6]; BestDose individual estimate, validation dataset n = 94, mean ± SD, SD): 16.8 ± 10.6 h
- Proportion of patients with AUC24h < 666 mg.h/L (underexposed) ([6]; human, in vivo): 21.3%
- AUC24h ([6]; human, in vivo, 1.3 mg/kg, SD): 975 ± 395 mg·h/L
- CLdap (daptomycin total body clearance) ([6]; human, in vivo, SD): 0.74 ± 0.42 L/h
- Cmin ([6]; human, in vivo, SD): 21.3 ± 12.9 mg/L
- Dmin (minimum effective dose to attain AUC24h = 666 mg.h/L at steady-state) ([6]; human, in vivo, SD): 6.4 ± 2.7 mg/kg
- Predicted concentrations ([6]; human, in vivo, SD): 46.6 ± 46.7 mg/L
- V1 ([6]; human, in vivo, SD): 7.9 ± 3.5 L

Source: PMC8779485, “Implementation and Comparison of Two Pharmacometric Tools for Model-Based Therapeutic Drug Monitoring and Precision Dosing of Daptomycin” (Pharmaceutics, 2022)
